The record followed here is US10188653B2, “Diacylglycerol acyltransferase 2 inhibitors” (Pfizer Inc., priority 2014, dated 2019).

This test has as its target hDGAT2 (Homo sapiens (Human), UniProt Q96PD7). Put plainly: In vitro DGAT2 assay, determination of IC50 values for DGAT2 inhibitors. The test is classed as biochemical. To be noted: hDGAT2 membrane fraction; [1-14C]decanoyl-CoA and 1,2-didecanoyl-sn-glycerol substrates; geometric mean IC50; read-out: IC50 values of Examples for inhibition of DGAT2. As for the experimental part: Recombinant baculovirus for the FLAG-tagged hDGAT2 was generated in SF9 insect cells using Bac-to-Bac baculovirus expression system (Invitrogen) according to the manufacturer's protocol. For the expression of hDGAT2, SF9 cells (20 L) grown in Sf900II media were infected with hDGAT2 baculovirus at a multiplicity of infection of 1 in a Wave Bioreactor System 20/50P wave bag (GE Healthcare). After 40 hours of infection, the cells were then harvested by centrifugation at 5,000×g. The cell pellets were washed by resuspending in phosphate buffered saline (PBS) and collected by centrifugation at 5,000×g. The cell paste was flash frozen in liquid N2 and stored at −80° C. until needed. All operations below were at 4° C. unless otherwise noted. […]
For determination of IC50 values, the reactions were carried out in 384-well white Polyplates (Perkin Elmer) in a total volume of 20 μL. […] Plates were centrifuged at 2,000×g for 1 min in an Allegra 6R Centrifuge (Beckman Coulter) and then were sealed again with fresh covers before reading in a 1450 Microbeta Wallac Trilux Scintillation Counter (Perkin Elmer). DGAT2 activity was measured by quantifying the generated product [^14C]tridecanoylglycerol in the upper organic phase. […]

pIC50: −log10 of the molar value.

hDGAT2, sequence (Q96PD7 whole entry): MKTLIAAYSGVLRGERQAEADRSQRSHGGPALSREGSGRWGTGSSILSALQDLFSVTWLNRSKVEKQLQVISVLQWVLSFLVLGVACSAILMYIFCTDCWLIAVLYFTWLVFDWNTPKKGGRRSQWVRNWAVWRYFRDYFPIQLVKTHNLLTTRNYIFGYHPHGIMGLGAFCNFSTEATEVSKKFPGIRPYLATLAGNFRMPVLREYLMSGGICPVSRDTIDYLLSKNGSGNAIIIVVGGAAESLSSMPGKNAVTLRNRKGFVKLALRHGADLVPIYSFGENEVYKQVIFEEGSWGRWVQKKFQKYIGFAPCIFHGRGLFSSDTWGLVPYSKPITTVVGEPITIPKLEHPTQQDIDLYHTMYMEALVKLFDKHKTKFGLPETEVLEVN

As usually defined, the pIC50 is the IC50 on a negative log10 scale, so that one unit is a factor of ten. Consider “(R)-2-(3-(2-ethoxy- phenoxy)piperidin-1-yl)- N-(1-hydroxy-2-methyl- propan-2-yl)pyrimidine- 5-carboxamide [Example 19.21]”, for which the negative logarithm of the IC50 (pIC50) was 8.10.
